Data: patent US8962527B2, “Process for preparation of herbicidal salts” (Nufarm Australia Limited, priority 2010, dated 2015)

How the values were obtained:
[1] = pH of 3% solution of the finished product in H2O; format: physicochemical; settings: 3% solution in H2O
Experimental: The reaction was monitored by addition of small amounts of reaction mixture to water. When the mixture provides a pH of 8 and remains at this pH the reaction was considered complete. The product was filtered and dried at temperature not greater than 60° C. The mother liquor is made up with fresh MTBE, ready for the next batch.

[2] = Hygroscopicity of the finished product; format: physicochemical; settings: dried solid product

SMILES: CNC.Cc1cc(Cl)ccc1OC(C)C(=O)O (centres unmarked) [Example 3, MCPP/DMA Salt]
- pH [1]: 5.8-6.3
- hygroscopicity of product [2]: extremely hydroscopic

SMILES: CC(Oc1ccc(Cl)cc1Cl)C(=O)O.CNC (centres unmarked) [Example 4, 2,4-DP/DMA Salt]
- pH [1]: 5.8-6.5
- hygroscopicity of product [2]: not hydroscopic

SMILES: CNC.Cc1cc(Cl)ccc1OCC(=O)O [Example 1, MCPA/DMA Salt]
- pH [1]: 5.5-6.5
- hygroscopicity of product [2]: extremely hydroscopic

SMILES: CNC.COc1c(Cl)ccc(Cl)c1C(=O)O [Example 2, Dicamba/DMA Salt]
- pH [1]: 5.5-6.5
- hygroscopicity of product [2]: extremely hydroscopic
